# Experimental data reported in patent US5766927A, “Inhibition of protein degradation in living cells with dipeptides” (Massachusetts Institute of Technology, priority 1994, dated 1998).
# Entries after “also recorded” stand apart in the source; their conditions may differ. Like-named read-outs stand apart in the source and are kept apart here. Residues, ends and D or L forms follow the SMILES beside them.
# Key:
# [1] = test system: yeast (S.cerevisiae) cells; experiment: Effect on yeast cell growth (optical density at 600 nm)
# Method: (§1) Saccharomyces cerevisiaecells of the strain BWGl-7a (MATa his4 ade1 ura3 leu2) were transformed with plasmids using conventional techniques (F. Sherman et al. Methods in Yeast Genetics Cold Spring Harbor Laboratory, N.Y., 1981). The transformed cells were grown at 30° C. in a medium of 2% galactose, 0.67% Yeast Nitrogen Base without amino acids (Difco), adenine (10 μg/mL), histidine (20 μg/mL) and leucine (60 ug/mL).
# The effect of 10 mM of leucine methyl ester (Leu methyl ester) on growth of exponentially growing yeast cells harboring a plasmid expressing either arginine-βgal (Arg-βgal, .largecircle., .circle-solid.) or leucine-βgal (Leu-βgal, .quadrature.,.box-solid.), supplemented with nothing (.largecircle.,.box-solid.) or with Leu methyl ester to a 10 mM final concentration (.box-solid.,.circle-solid.), was assessed. Results are represented in FIG. 1. Growth under each of these conditions was monitored by optical density at 600 nm.
# Arg-βgal = experiment: Steady state β-galactosidase activity, cells expressing Arg-βgal; conditions: for in vivo metabolic stabilization of Arg-βgal (βgal activity relative to untreated control): 2 hours incubation with dipeptide
# Method: as §1
# Leu-βgal [2] = type: cell-based, Saccharomyces cerevisiae; conditions: for half-life (metabolic stabilization) of Leu-βgal in the presence of Leu methyl ester: 10 mM, 3 hour incubation
# Method: (§2) Transformed cells were grown as described above, except that methionine (20 ug/mL) was included, to an optical density of about 0.5 at 600 nm. Amino acid derivatives were added and incubation continued for 4 to 5 hours until the optical density was approximately 1.0. Cells from a 10 mL culture were harvested by filtration through the well of a microtiter filtration plate. Subsequently, the cells were washed several times on the filter in the growth medium lacking methionine, and resuspended in 0.4 mL of 1% galactose, 50 mM potassium phosphate buffer (pH 7.4). (^35 S)methionine (100 uCi) was then added for a specified pulse time. The cells were collected by filtration and resuspended in 0.4 mL of the growth medium containing cycloheximide (0.2 mg/mL) and trichodermin (50 ug/mL). Samples (0.1 mL) were withdrawn at indicated times, and added to 0.8 mL of cold Buffer A (50 mM Na-HEPES pH 7.5, 0.15M NaCl, 5 mM EDTA, 1% TRiton X-100) containing leupeptin, pepstatin A, antipain, aprotinin and chymostatin (Sigma), (each at 20 ug/mL) in addition to 0.4 mL of glass beads. The cells were disrupted by vortexing three times for one minute at 4° C. The extracts were centrifuged at 12,000 g for 10 minutes and the radioactivity of acid-insoluble ^35 S in the supernatants was determined. Aliquots of the supernatants containing equal amounts of total acid-insoluble ^35 S were processed for immunoprecipitation with a monoclonal antibody to βgal. Ascitic fluid containing a molar excess of the antibody (at least ten-fold) was added to each aliquot, with subsequent incubation on ice for 1 to 2 hours. Protein A-Sepharose (Pharmacia) was then added and the suspension was incubated with rocking at 4° C. for 30 minutes and centrifuged at 12,000 g for thirty seconds. The protein A-Sepharose pellets were washed three times in Buffer A containing 0.1% SDS, resuspended in an SDS, dithiothreitol (DTT)-containing electrophoretic sample buffer, heated at 100° C. for 3 minutes, and centrifuged at 12,000 g for 20 seconds. (Laemmli, Nature 227, 680 (1970)). The supernatants were subjected to electrophoresis in a 6% discontinuous polyacrylamide-SDS gel (150 by 150 by 1.5 mm), with subsequent fluorography.
# (§3) After fluorography of the pulse-chase gels, the amount of radioactivity in each band was detected by scintillation counting of the respective gel slices. Half-lives were calculated from these values (appropriately adjusted using the value from a blank gel slice) assuming a first-order kinetics of protein breakdown.
# A pulse-chase experiment (5 minute pulse) was carried out with cells expressing Val-βgal (A), or Leu-βgal in the presence (B) or absence (C) of a 3 hour incubation with 10 mM Leu methyl ester. Timepoints: 0 min (lane 1); 10 min (lane 2); and 30 min (lane 3). Bands are labelled: βgal (β-galactosidase); 90 kD (a cleavage product of βgal; note its absence from the lanes with metabolically stable Val-βgal lanes); X (an unrelated protein species crossreacting with the monoclonal antibody to βgal); and S (a βgal cleavage product apparently specific for metabolically stable X-βgal; species).
# A pulse-chase experiment (5 minute pulse) was carried out with cells expressing Val-βgal (A), Leu-βgal (B), Leu-βgal plus 10 mM L-Ala-L-Trp (C), and Leu-βgal plus 10 mM L-Trp-L-Ala (D). Incubation with each dipeptide was carried out for 4 hours. Timepoints: 0 min (lane 1); 10 min (lane 2); and 30 min (lane 3). See legend to FIG. 6 for band designations.
# Leu-βgal [3] = experiment: Steady state β-galactosidase activity, cells expressing Leu-βgal; type: cell-based, Saccharomyces cerevisiae; conditions: 10 mM
# Method: (§4) Incubation was continued at 30° C.
# Control cultures (.largecircle., .quadrature.) received no methyl ester.
# Exponentially growing yeast cells harboring a plasmid expressing Leu- βal were supplemented with Leu methyl ester to the 10 mM final concentration (zero time) and assayed for βgal activity over a 7 hour time course (.box-solid.). A control culture (.quadrature.) received no methyl ester.
# Val-βgal = experiment: Steady state β-galactosidase activity, cells expressing Val-βgal (control); type: cell-based, Saccharomyces cerevisiae; conditions: Leu-OMe 0 to 10 mM, 1 hour incubation
# Method: as §4
# [4] = test system: X-βgal proteins with bulky hydrophobic amino termini (Phe-βgal, Leu-βgal, Trp-βgal, Tyr-βgal, Ile-βgal); experiment: Steady state β-galactosidase activity, X-βgal proteins with bulky hydrophobic amino-terminal residues; type: cell-based, Saccharomyces cerevisiae; conditions: 1 hour incubation
# Method: as §4
# Tyr-βgal = experiment: Pulse-chase experiment in vivo and half-life determination, Tyr-βgal; type: cell-based, Saccharomyces cerevisiae; conditions: for in vivo half-life (metabolic stabilization) of Tyr-βgal: 4 hour incubation
# Method: as §2, §3
# A pulse-chase experiment (3 minute pulse) was carried out with cells expressing Tyr-βgal in the absence (A) or presence (B) of a 4 hour incubation with 10 mM Leu methyl ester. Timepoints: 0 min (lane 1); 10 min (lane 2); 30 min (lane 3); and 60 min (lane 4). See legend to FIG. 6 for band designations.
# [5] = dipeptides, over the time periods used (data not shown)
# [6] = 10 mM Leu methyl ester vs minus OMe
compound,measurement,setting,value
"C[C@H](NC(=O)[C@@H](N)CCCN=C(N)N)C(=O)O [L-Arg-L-Ala, L-arginine-L-alanine] (H-Arg-Ala-OH)",effect on yeast cell growth,[1]; [5],no adverse effect
"C[C@H](N)C(=O)N[C@@H](CCCNC(=N)N)C(=O)O [L-Ala-L-Arg, L-alanine-L-arginine, reference compound] (H-Ala-Arg-OH)",in vivo metabolic stabilization of Arg-βgal (βgal activity relative to untreated control),Arg-βgal,no effect
same,effect on yeast cell growth,[1]; [5],no adverse effect
C[C@@H](NC(=O)[C@@H](N)CCCNC(=N)N)C(=O)O [L-Arg-D-Ala] (HELM PEPTIDE1{R.[dA]}$$$$V2.0),in vivo metabolic stabilization of Arg-βgal (βgal activity relative to untreated control),Arg-βgal,stronger metabolic stabilization; also recorded: much better in vivo metabolic stabilizer
"COC(=O)[C@@H](N)CC(C)C [Leu methyl ester, leucine methyl ester]",amount of Arg-βgal,"Arg-βgal; 10 mM Leu methyl ester, 3 hours incubation, varying initial OD600",does not increase
same,effect on Arg-βgal level,"Arg-βgal; Leu-OMe 0 to 10 mM, 1 hour incubation",No effect
same,90 kD βgal cleavage product,Leu-βgal [2]; 10 mM Leu methyl ester,much diminished
same,increase in half-life of Leu-βgal,Leu-βgal [2]; [6],3 fold
same,"zero-time increase in the amount of Leu-βgal protein (βgal band, lane 1)","Leu-βgal [2]; 10 mM Leu methyl ester, 5 minute pulse",1.9 fold
same,half-life (metabolic stabilization) of Leu-βgal in the presence of Leu methyl ester,Leu-βgal [2],metabolic stabilization
same,half-life (metabolic stabilization) of Leu-βgal in the presence of Leu methyl ester,Leu-βgal [2]; listed as Leu-OMe,increased
same,half-life (metabolic stabilization) of Leu-βgal in the presence of Leu methyl ester,Leu-βgal [2]; listed as leucine methyl ester,extended
same,steady state activity (amount) of Leu-βgal,"Leu-βgal [3]; 3 hours incubation, varying initial OD600",specifically increases
same,"increase in βgal level per hour (slope of line of best fit, compared with control levels)","Leu-βgal [3]; 7 hour time course, Leu-βgal",11 fold per hour
same,magnitude of the effect on Leu-βgal levels over time,Leu-βgal [3]; first 7 hours,increases linearly with time
same,effect on Val-βgal level,Val-βgal,No effect
same,concentration at which the effect reaches saturation,[4],5 to 10 mM
same,levels of all 5 X-βgal proteins with bulky hydrophobic amino termini,[4]; Leu-OMe 0 to 10 mM,increased
same,amounts of the 90 kD cleavage product,Tyr-βgal; 10 mM Leu methyl ester,decrease
same,increase in half-life of Tyr-βgal,Tyr-βgal; [6],4.8 fold
same,zero-time increase in the amount of Tyr-βgal protein,"Tyr-βgal; 10 mM Leu methyl ester, 3 minute pulse",3.3 fold
same,in vivo half-life (metabolic stabilization) of Tyr-βgal,Tyr-βgal; 10 mM Leu methyl ester,metabolic stabilization
same,in vivo half-life (metabolic stabilization) of Tyr-βgal,"Tyr-βgal; 10 mM Leu methyl ester, listed as Leu-OMe",increased
same,effect on cell growth,"[1]; 10 mM Leu methyl ester, exponentially growing cells expressing Arg-βgal or Leu-βgal",no adverse effects
"C[C@H](NC(=O)[C@@H](N)Cc1c[nH]c2ccccc12)C(=O)O [L-Trp-L-Ala, L-tryptophan-L-alanine] (H-Trp-Ala-OH)",effect on yeast cell growth,[1],no adverse effect
"C[C@H](N)C(=O)N[C@@H](Cc1c[nH]c2ccccc12)C(=O)O [L-Ala-L-Trp, reference compound] (H-Ala-Trp-OH)",effect on yeast cell growth,[1],no adverse effect
